According to PubChem BioAssay (NCI):
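Abbreviation: GI50, concentration required for 50% inhibition of growth. At the TGI there is no net growth.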

Assays:
Assay in all cases: NCI-60 cell line screen, 384-well format
786-0 renal = system: 786-0 renal
MALME-3M melanoma = system: MALME-3M melanoma
SW-620 colon = system: SW-620 colon
NCI-H23 lung = system: NCI-H23 lung
LOX IMVI melanoma = system: LOX IMVI melanoma
MDA-MB-468 breast = system: MDA-MB-468 breast
SK-MEL-5 melanoma = system: SK-MEL-5 melanoma
UACC-257 melanoma = system: UACC-257 melanoma
SNB-75 CNS = system: SNB-75 CNS
ACHN renal = system: ACHN renal
A549 NSCLC = system: A549 NSCLC
CAKI-1 renal = system: CAKI-1 renal
RPMI-8226 leukemia = system: RPMI-8226 leukemia
MOLT-4 leukemia = system: MOLT-4 leukemia
HT29 colon = system: HT29 colon
SK-OV-3 ovarian = system: SK-OV-3 ovarian
NCI-H226 lung = system: NCI-H226 lung
NCI/ADR-RES ovarian = system: NCI/ADR-RES ovarian
EKVX NSCLC = system: EKVX NSCLC
RXF 393 renal = system: RXF 393 renal
MDA-MB-231 breast = system: MDA-MB-231 breast
IGROV1 ovarian = system: IGROV1 ovarian
U251 glioblastoma = system: U251 glioblastoma
UACC-62 melanoma = system: UACC-62 melanoma
K-562 leukemia = system: K-562 leukemia
A498 renal = system: A498 renal
KM12 colon = system: KM12 colon
NCI-H322M lung = system: NCI-H322M lung
HOP-92 NSCLC = system: HOP-92 NSCLC
M14 melanoma = system: M14 melanoma
OVCAR-5 ovarian = system: OVCAR-5 ovarian
SF-539 CNS = system: SF-539 CNS
TK-10 renal = system: TK-10 renal
CCRF-CEM leukemia = system: CCRF-CEM leukemia
UO-31 renal = system: UO-31 renal
HCC-2998 colon = system: HCC-2998 colon
OVCAR-3 ovarian = system: OVCAR-3 ovarian
HS 578T breast = system: HS 578T breast
HCT-15 colon = system: HCT-15 colon
DU-145 prostate = system: DU-145 prostate
SF-295 CNS = system: SF-295 CNS
NCI-H460 NSCLC = system: NCI-H460 NSCLC
PC-3 prostate = system: PC-3 prostate
SN12C renal = system: SN12C renal
SNB-19 CNS = system: SNB-19 CNS
HOP-62 NSCLC = system: HOP-62 NSCLC
SR leukemia = system: SR leukemia
SK-MEL-28 melanoma = system: SK-MEL-28 melanoma
SF-268 CNS = system: SF-268 CNS
OVCAR-8 ovarian = system: OVCAR-8 ovarian
NCI-H522 lung = system: NCI-H522 lung
MDA-MB-435 melanoma = system: MDA-MB-435 melanoma
MCF7 breast = system: MCF7 breast
T-47D breast = system: T-47D breast
COLO 205 colon = system: COLO 205 colon
OVCAR-4 ovarian = system: OVCAR-4 ovarian
HL-60(TB) leukemia = system: HL-60(TB) leukemia
BT-549 breast = system: BT-549 breast

With CCC[C@H](N[C@H]1CCc2cc(F)cc(F)c2C1)C(=O)Nc1cn(C(C)(C)CNCC(C)(C)C)cn1 the GI50 ([…]-0 renal) was 14.5 µM, the TGI (786-0 renal) was 29.9 µM and the GI50 (MALME-3M melanoma) was 2.64 µM. For the same molecule, the TGI (MALME-3M melanoma) was 14.4 µM, the GI50 (SW-620 colon) was 21.4 µM and the TGI (SW-620 colon) was 42.2 µM. For the same molecule, the GI50 (NCI-H23 lung) was 12.1 µM, the TGI (NCI-H23 lung) was 29.6 µM and the GI50 (LOX IMVI melanoma) was 17.3 µM. The TGI (LOX IMVI melanoma) was 31.3 µM, the GI50 (MDA-MB-468 breast) was 0.603 µM and the TGI (MDA-MB-468 breast) was 6.55 µM. For the same molecule, the GI50 (SK-MEL-5 melanoma) was 11.4 µM, the TGI (SK-MEL-5 melanoma) was 23.6 µM and the GI50 (UACC-257 melanoma) was 5.51 µM. It also gave a TGI (UACC-257 melanoma) of 21 µM, a GI50 (SNB-75 CNS) of 19.4 µM and a TGI (SNB-75 CNS) of 71 µM. The GI50 (ACHN renal) was 19.9 µM, the TGI (ACHN renal) was 69.4 µM and the GI50 (A549 NSCLC) was 22.2 µM. For the same molecule, the TGI (A549 NSCLC) was > 100 µM, the GI50 (CAKI-1 renal) was 14.2 µM and the TGI (CAKI-1 renal) was 31.6 µM. It also gave a GI50 (RPMI-8226 leukemia) of 3.03 µM, a TGI (RPMI-8226 leukemia) of 14.1 µM and a GI50 (MOLT-4 leukemia) of 3.46 µM. It also gave a TGI (MOLT-4 leukemia) of 15 µM, a GI50 (HT29 colon) of 9.66 µM and a TGI (HT29 colon) of 22.7 µM. For the same molecule, the GI50 (SK-OV-3 ovarian) was 15.8 µM, the TGI (SK-OV-3 ovarian) was 33.2 µM and the GI50 (NCI-H226 lung) was 15.6 µM. The TGI (NCI-H226 lung) was 40.4 µM, the GI50 (NCI/ADR-RES ovarian) was 11.1 µM and the TGI (NCI/ADR-RES ovarian) was 27.1 µM. It also gave a GI50 (EKVX NSCLC) of 19.2 µM, a TGI (EKVX NSCLC) of 71.8 µM and a GI50 (RXF 393 renal) of 11.1 µM. It also gave a TGI (RXF 393 renal) of 27.1 µM, a GI50 (MDA-MB-231 breast) of 12.2 µM and a TGI (MDA-MB-231 breast) of 32.1 µM. The GI50 (IGROV1 ovarian) was 25.9 µM, the TGI (IGROV1 ovarian) was > 100 µM and the GI50 (U251 glioblastoma) was 17.3 µM. For the same molecule, the TGI (U251 glioblastoma) was 33.1 µM, the GI50 (UACC-62 melanoma) was 14.1 µM and the TGI (UACC-62 melanoma) was 27.4 µM. It also gave a GI50 (K-562 leukemia) of 5.58 µM, a TGI (K-562 leukemia) of 17 µM and a GI50 (A498 renal) of 11.7 µM. The TGI (A498 renal) was 26.6 µM, the GI50 (KM12 colon) was 16.1 µM and the TGI (KM12 colon) was 35.3 µM. The GI50 (NCI-H322M lung) was 26.3 µM, the TGI (NCI-H322M lung) was 92.6 µM and the GI50 (HOP-92 NSCLC) was 11.5 µM. The TGI (HOP-92 NSCLC) was 26.2 µM, the GI50 (M14 melanoma) was 14.1 µM and the TGI (M14 melanoma) was 27.9 µM. For the same molecule, the GI50 (OVCAR-5 ovarian) was 21.4 µM, the TGI (OVCAR-5 ovarian) was 53.9 µM and the GI50 (SF-539 CNS) was 18 µM. For the same molecule, the TGI (SF-539 CNS) was 32.1 µM, the GI50 (TK-10 renal) was 21.4 µM and the TGI (TK-10 renal) was 90 µM. The GI50 (CCRF-CEM leukemia) was 6.62 µM, the TGI (CCRF-CEM leukemia) was 20 µM and the GI50 (UO-31 renal) was 14.9 µM. The TGI (UO-31 renal) was 32.4 µM, the GI50 (HCC-2998 colon) was 7.48 µM and the TGI (HCC-2998 colon) was 21.6 µM. The GI50 (OVCAR-3 ovarian) was 11.1 µM, the TGI (OVCAR-3 ovarian) was 23.5 µM and the GI50 (HS 578T breast) was 13 µM. It also gave a TGI (HS 578T breast) of 31.7 µM, a GI50 (HCT-15 colon) of 12 µM and a TGI (HCT-15 colon) of 25.6 µM. The GI50 (DU-145 prostate) was 20.6 µM, the TGI (DU-145 prostate) was 74.6 µM and the GI50 (SF-295 CNS) was 14.6 µM. For the same molecule, the TGI (SF-295 CNS) was 30.2 µM, the GI50 (NCI-H460 NSCLC) was 15.1 µM and the TGI (NCI-H460 NSCLC) was 29.4 µM. The GI50 (PC-3 prostate) was 6.56 µM, the TGI (PC-3 prostate) was 21.8 µM and the GI50 (SN12C renal) was 33.1 µM. The TGI (SN12C renal) was > 100 µM, the GI50 (SNB-19 CNS) was 21.9 µM and the TGI (SNB-19 CNS) was 67.3 µM. The GI50 (HOP-62 NSCLC) was 17.7 µM, the TGI (HOP-62 NSCLC) was 51.2 µM and the GI50 (SR leukemia) was 3.71 µM. It also gave a TGI (SR leukemia) of 15.4 µM, a GI50 (SK-MEL-28 melanoma) of 14.7 µM and a TGI (SK-MEL-28 melanoma) of 29.3 µM. It also gave a GI50 (SF-268 CNS) of 19.8 µM, a TGI (SF-268 CNS) of 50.8 µM and a GI50 (OVCAR-8 ovarian) of 22.3 µM. The TGI (OVCAR-8 ovarian) was > 100 µM, the GI50 (NCI-H522 lung) was 18.4 µM and the TGI (NCI-H522 lung) was 48.4 µM. It also gave a GI50 (MDA-MB-435 melanoma) of 20.7 µM, a TGI (MDA-MB-435 melanoma) of 61.2 µM and a GI50 (MCF7 breast) of 6.74 µM. It also gave a TGI (MCF7 breast) of 23.1 µM, a GI50 (T-47D breast) of 6.21 µM and a TGI (T-47D breast) of 40 µM. It also gave a GI50 (COLO 205 colon) of 21.3 µM, a TGI (COLO 205 colon) of 97.7 µM and a GI50 (OVCAR-4 ovarian) of 13.8 µM. For the same molecule, the TGI (OVCAR-4 ovarian) was 61.9 µM, the GI50 (HL-60(TB) leukemia) was 10.7 µM and the TGI (HL-60(TB) leukemia) was 22.6 µM. For the same molecule, the GI50 (BT-549 breast) was 6.44 µM and the TGI (BT-549 breast) was 26.2 µM.
